These compounds were tested against T1, GLP-1R (Homo sapiens, UniProt P43220) (assay: GLP-1R activation cAMP assay (Assay 1 or Assay 2)). Conditions: cAMP increase in CHO cells stably expressing GLP-1R; compounds run on one of the two cAMP assays.
T1 construct: host or cells: CHO cells
Assay type: cell-based
In short: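 CHO cells stably expressing human GLP-1R were incubated 1 h in HBSS/20 mM HEPES/0.1% BSA, then exposed to 10-point agonist dilutions for 30 min at 37 °C. cAMP increase was measured with an HTRF Gs dynamic kit; EC50 from sigmoidal fit of response versus log concentration.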

T1 sequence (P43220 24-463): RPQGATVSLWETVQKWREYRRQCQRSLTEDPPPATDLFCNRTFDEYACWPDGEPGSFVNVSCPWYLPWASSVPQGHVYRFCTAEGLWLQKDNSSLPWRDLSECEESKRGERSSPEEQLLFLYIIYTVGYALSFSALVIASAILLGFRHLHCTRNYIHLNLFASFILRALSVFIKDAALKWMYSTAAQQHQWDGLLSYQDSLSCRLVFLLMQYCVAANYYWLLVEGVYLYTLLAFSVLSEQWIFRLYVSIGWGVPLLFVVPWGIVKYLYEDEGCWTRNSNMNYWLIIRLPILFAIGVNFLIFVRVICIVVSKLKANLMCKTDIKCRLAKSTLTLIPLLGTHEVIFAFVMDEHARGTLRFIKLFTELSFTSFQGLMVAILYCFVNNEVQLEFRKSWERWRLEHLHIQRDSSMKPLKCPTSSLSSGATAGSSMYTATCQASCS

EC50	Structure (SMILES)
2.28 nM	O=C(O)c1ccc2nc(Cc3cc(F)c(-c4cccc(OCc5cnc(C(=O)NC6CCCC6)cc5F)n4)cc3F)n(C[C@@H]3CCO3)c2c1 [Example 244, (S)-2-(4-(6-((6-(cyclopentylcarbamoyl)-4-fluoropyridin-3-yl)methoxy)pyridin-2-yl)-2,5-difluorobenzyl)-1-(oxetan-2-ylmethyl)-1H-benzo[d]imidazole-6-carboxylic acid]
3.38 nM	NC(=O)c1csc(COc2cccc(-c3cc(F)c(Cc4nc5ccc(C(=O)O)cc5n4C[C@@H]4CCO4)cc3F)n2)c1 [Example 131, (S)-2-(4-(6-((4-carbamoylthiophen-2-yl)methoxy)pyridin-2-yl)-2,5-difluorobenzyl)-1-(oxetan-2-ylmethyl)-1H-benzo[d]imidazole-6-carboxylic acid]
40.6 nM	COCCn1c(Cc2cc(F)c(-c3cccc(OCc4ccc(C(N)=O)nc4)n3)cc2F)nc2ccc(C(=O)O)cc21 [Example 174, 2-(4-(6-((6-carbamoylpyridin-3-yl)methoxy)pyridin-2-yl)-2,5-difluorobenzyl)-1-(2-methoxyethyl)-1H-benzo[d]imidazole-6-carboxylic acid]
447 nM	N#CCn1nccc1COc1cccc(-c2cc(F)c(Cc3nc4ccc(C(=O)O)cc4n3C[C@@H]3CCO3)cc2F)n1 [Example 239, (S)-2-(4-(6-((1-(cyanomethyl)-1H-pyrazol-5-yl)methoxy)pyridin-2-yl)-2,5-difluorobenzyl)-1-(oxetan-2-ylmethyl)-1H-benzo[d]imidazole-6-carboxylic acid]
0.295 nM	Cn1cc(C#Cc2ccc(COc3cccc(-c4cc(F)c(Cc5nc6ccc(C(=O)O)cc6n5C[C@@H]5CCO5)cc4F)n3)c(Cl)n2)cn1 [Example 363, (S)-2-(4-(6-((2-chloro-6-((1-methyl-1H-pyrazol-4-yl)ethynyl)pyridin-3-yl)methoxy)pyridin-2-yl)-2,5-difluorobenzyl)-1-(oxetan-2-ylmethyl)-1H-benzo[d]imidazole-6-carboxylic acid]
0.25 nM	O=C(O)c1ccc2nc(Cc3cc(F)c(-c4cccc(OCc5cc6n(n5)CC(F)(F)C6)n4)cc3F)n(C[C@@H]3CCO3)c2c1 [Example 74, (S)-2-(4-(6-((5,5-difluoro-5,6-dihydro-4H-pyrrolo[1,2-b]pyrazol-2-yl)methoxy)pyridin-2-yl)-2,5-difluorobenzyl)-1-(oxetan-2-ylmethyl)-1H-benzo[d]imidazole-6-carboxylic acid]
0.363 nM	O=C(O)c1ccc2nc(Cc3cc(F)c(-c4cccc(OCc5ccc(C#Cc6cncnc6)cc5)n4)cc3F)n(C[C@@H]3CCO3)c2c1 [Example 405, (S)-2-(2,5-difluoro-4-(6-((4-(pyrimidin-5-ylethynyl)benzyl)oxy)pyridin-2-yl)benzyl)-1-(oxetan-2-ylmethyl)-1H-benzo[d]imidazole-6-carboxylic acid]
0.22 nM	O=C(O)c1ccc2nc(Cc3cc(F)c(-c4cccc(OCc5cnc(-c6cn(C7COC7)nn6)cc5F)n4)cc3F)n(C[C@@H]3CCO3)c2c1 [Example 236, 2-[[2,5-difluoro-4-[6-[[4-fluoro-6-[1-(oxetan-3-yl)triazol-4-yl]-3-pyridyl]methoxy]-2-pyridyl]phenyl]methyl]-3-[[(2S)-oxetan-2-yl]methyl]benzimidazole-5-carboxylic acid]
0.53 nM	O=C(O)c1ccc2nc(Cc3cc(F)c(-c4cccc(OCc5nnc(C(F)(F)F)s5)n4)cc3F)n(C[C@@H]3CCO3)c2c1 [Example 25, (S)-2-(2,5-difluoro-4-(6-((5-(trifluoromethyl)-1,3,4-thiadiazol-2-yl)methoxy)pyridin-2-yl)benzyl)-1-(oxetan-2-ylmethyl)-1H-benzo[d]imidazole-6-carboxylic acid]
0.067 nM	Cn1nncc1C#Cc1cnc(COc2cccc(-c3cc(F)c(Cc4nc5ccc(C(=O)O)cc5n4C[C@@H]4CCO4)cc3F)n2)c(F)c1 [Example 288, (S)-2-(2,5-difluoro-4-(6-((3-fluoro-5-((1-methyl-1H-1,2,3-triazol-5-yl)ethynyl)pyridin-2-yl)methoxy)pyridin-2-yl)benzyl)-1-(oxetan-2-ylmethyl)-1H-benzo[d]imidazole-6-carboxylic acid]
1.32 nM	N#Cc1ccc2nc(COc3cccc(-c4cc(F)c(Cc5nc6ccc(C(=O)O)cc6n5C[C@@H]5CCO5)cc4F)n3)cn2c1 [Example 31, (S)-2-(4-(6-((6-cyanoimidazo[1,2-a]pyridin-2-yl)methoxy)pyridin-2-yl)-2,5-difluorobenzyl)-1-(oxetan-2-ylmethyl)-1H-benzo[d]imidazole-6-carboxylic acid]
0.06 nM	O=C(O)c1ccc2nc(Cc3cc(F)c(-c4cccc(OCc5ncc(-c6cnco6)s5)n4)cc3F)n(C[C@@H]3CCO3)c2c1 [Example 93, (S)-2-(2,5-difluoro-4-(6-((5-(oxazol-5-yl)thiazol-2-yl)methoxy)pyridin-2-yl)benzyl)-1-(oxetan-2-ylmethyl)-1H-benzo[d]imidazole-6-carboxylic acid]
15.7 nM	O=C(O)c1ccc2nc(Cc3cc(F)c(-c4cccc(OCc5cn(C6CC6)nn5)n4)cc3F)n(C[C@@H]3CCO3)c2c1 [Example 210, 2-[[4-[6-[(1-cyclopropyltriazol-4-yl)methoxy]-2-pyridyl]-2,5-difluoro-phenyl]methyl]-3-[[(2S)-oxetan-2-yl]methyl]benzimidazole-5-carboxylic acid]

Second part, the compound before the results:

Structure (SMILES)	EC50
Cn1cc(C#Cc2ccc(COc3cccc(-c4cc(F)c(Cc5nc6c(F)cc(C(=O)O)cc6n5C[C@@H]5CCO5)cc4F)n3)c(F)c2)cn1 [Example 151, (S)-2-(2,5-difluoro-4-(6-((2-fluoro-4-((1-methyl-1H-pyrazol-4-yl)ethynyl)benzyl)oxy)pyridin-2-yl)benzyl)-4-fluoro-1-(oxetan-2-ylmethyl)-1H-benzo[d]imidazole-6-carboxylic acid]	0.1 nM
Cc1nnc(COc2cccc(-c3cc(F)c(Cc4nc5ccc(C(=O)O)cc5n4[C@@H]4COCC4(C)C)cc3F)n2)s1 [Example 290, (S)-2-(2,5-difluoro-4-(6-((5-methyl-1,3,4-thiadiazol-2-yl)methoxy)pyridin-2-yl)benzyl)-1-(4,4-dimethyltetrahydrofuran-3-yl)-1H-benzo[d]imidazole-6-carboxylic acid]	0.155 nM
COCCn1c(Cc2cc(F)c(-c3cccc(OCc4cn(-c5ccccc5)cn4)n3)cc2F)nc2ccc(C(=O)O)cc21 [Example 122, 2-(2,5-difluoro-4-(6-((1-phenyl-1H-imidazol-4-yl)methoxy)pyridin-2-yl)benzyl)-1-(2-methoxyethyl)-1H-benzo[d]imidazole-6-carboxylic acid]	695 nM
O=C(O)c1cc(F)c2nc(Cc3c(F)cc(-c4ccnc(OCc5nc(C(F)(F)F)cs5)n4)c(F)c3F)n(C[C@@H]3CCO3)c2c1 [Example 377, (S)-4-fluoro-1-(oxetan-2-ylmethyl)-2-(2,3,6-trifluoro-4-(2-((4-(trifluoromethyl)thiazol-2-yl)methoxy)pyrimidin-4-yl)benzyl)-1H-benzo[d]imidazole-6-carboxylic acid]	0.481 nM
COc1nnc(COc2cc(-c3cc(F)c(Cc4nc5c(F)cc(C(=O)O)cc5n4C[C@@H]4CCO4)cc3F)ccc2F)s1 [Example 389, (S)-4-fluoro-1-(oxetan-2-ylmethyl)-2-((2,4′,5-trifluoro-3′-((5-methoxy-1,3,4-thiadiazol-2-yl)methoxy)-[1,1′-biphenyl]-4-yl)methyl)-1H-benzo[d]imidazole-6-carboxylic acid]	0.257 nM
COCCn1c(Cc2cc(F)c(-c3cccc(OCc4ccc(C#Cc5cncn5C)cc4F)n3)cc2F)nc2ccc(C(=O)O)cc21 [Example 233, 2-(2,5-difluoro-4-(6-((2-fluoro-4-((1-methyl-1H-imidazol-5-yl)ethynyl)benzyl)oxy)pyridin-2-yl)benzyl)-1-(2-methoxyethyl)-1H-benzo[d]imidazole-6-carboxylic acid]	1.2 nM
COc1nnc(COc2cccc(-c3cc(F)c(Cc4nc5c(F)cc(C(=O)O)cc5n4[C@@H]4COCC4(C)C)c(F)c3)n2)s1 [Example 439, (S)-2-(2,6-difluoro-4-(6-((5-methoxy-1,3,4-thiadiazol-2-yl)methoxy)pyridin-2-yl)benzyl)-1-(4,4-dimethyltetrahydrofuran-3-yl)-4-fluoro-1H-benzo[d]imidazole-6-carboxylic acid]	0.397 nM
CNC(=O)c1cc(Cl)c(COc2cccc(-c3cc(F)c(Cc4nc5c(F)cc(C(=O)O)cc5n4C[C@@H](C)OC)cc3F)n2)cn1 [Example 393, (R)-2-(4-(6-((4-chloro-6-(methylcarbamoyl)pyridin-3-yl)methoxy)pyridin-2-yl)-2,5-difluorobenzyl)-4-fluoro-1-(2-methoxypropyl)-1H-benzo[d]imidazole-6-carboxylic acid]	0.777 nM
Cc1cc(Cc2nc3ccc(C(=O)O)cc3n2[C@@H]2COCC2(C)C)c(Cl)cc1-c1ccc(F)c(OCc2ncc(C(C)(F)F)s2)n1 [Example 427, (S)-2-(2-chloro-4-(6-((5-(1,1-difluoroethyl)thiazol-2-yl)methoxy)-5-fluoropyridin-2-yl)-5-methylbenzyl)-1-(4,4-dimethyltetrahydrofuran-3-yl)-1H-benzo[d]imidazole-6-carboxylic acid]	1.42 nM
COCCn1c(Cc2cc(F)c(-c3cccc(OCc4ccc(C#CC5CN(C)C5)cc4F)n3)cc2F)nc2ccc(C(=O)O)cc21 [Example 234, 2-[[2,5-difluoro-4-[6-[[2-fluoro-4-[2-(1-methylazetidin-3-yl)ethynyl]phenyl]methoxy]-2-pyridyl]phenyl]methyl]-3-(2-methoxyethyl)benzimidazole-5-carboxylic acid]	5.9 nM
CC1(C)COC[C@H]1n1c(Cc2cc(F)c(-c3ccnc(OCc4ccc(Cl)s4)n3)cc2F)nc2ccc(C(=O)O)cc21 [Example 418, (S)-2-(4-(2-((5-chlorothiophen-2-yl)methoxy)pyrimidin-4-yl)-2,5-difluorobenzyl)-1-(4,4-dimethyltetrahydrofuran-3-yl)-1H-benzo[d]imidazole-6-carboxylic acid]	0.384 nM
